Like-named read-outs stand apart in the source and are kept apart here.
Columns and labels:
[1] = system: HCV genotype 1b replicon cell line (APC144; Huh7 cell background); test: HCV Genotype 1b Replicon Assay (Renilla luciferase readout); type: cell-based; conditions: Hepatitis C virus, Huh-7; read-out: Genotype 1b (pEC50 class, HCV genotype 1b replicon assay) (converted)
Text: Assay 1: HCV Genotype 1b Replicon Assay
The HCV genotype 1b replicon cell line was obtained from Apath LLC (Brooklyn, N.Y.) (APC144; Huh7 cell background). This subgenomic replicon contains the N-terminus of the HCV core protein fused to the neomycin-resistance selectable marker. The EMCV IRES lies downstream and drives expression of humanized Renilla luciferase fused to the non-structural proteins NS3-NS5B. This cell line was used to determine compound potency using the luciferase activity readout as a measurement of compound inhibition of replicon levels.
Cells were grown at 37° C. in a 5% CO2 humidified incubator in DMEM (Invitrogen) with 10% FBS (HyClone), 1×NEAA (Invitrogen), 1× Pen-Strep (Invitrogen), and 500 μg/mL G418 (Invitrogen). On day 1 of the assay, cells were plated at 10,000 cells/well in white 96-well tissue culture plates (Costar) in 200 μL media lacking G418. Four hours later, once the cells have adhered, the media was removed and replaced with media (no G418) containing dose-responses of test compounds. Compounds were initially diluted in DMSO and then diluted another 200× in media to bring the final DMSO concentration down to 0.5%. The cells were incubated with test compounds for 48 hours. At the end of the incubation period, media and compound were removed from the plates and the luciferase activity was determined using Promega Renilla-Glo reagents.
To analyze the data, the luciferase activity was plotted vs. the compound concentration, and EC50 values were determined from a 4-parameter robust fit model with the GraphPad Prism software package (GraphPad Software, Inc., San Diego, Calif.). Results are expressed as the negative decadic logarithm of the EC50 value, pEC50.
Test compounds having a higher pEC50 value in this assay show greater inhibition of HCV genotype 1b replication.

[2] = system: HCV genotype 1a replicon cell line (APC89; Huh7.5 cell background); test: HCV Genotype 1a Replicon Assay (NS3-specific protease activity readout); type: cell-based; conditions: Hepatitis C virus
Method in brief: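 Genotype 1a subgenomic replicon cells (APC89, Huh7.5) were treated with compound dose-responses in G418-free medium, 0.5% DMSO final, for 48 or 72 hours at 37° C. Lysate NS3/4a protease activity measured with 15 μM FRET substrate, 20 min at 37° C (ex 340/em 509 nm); EC50 by 4-parameter fit.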

[3] = 72 hour incubation, read-out: Genotype 1a (pEC50 class, HCV genotype 1a replicon assay) (converted)
[4] = compounds incubated for 48 hours, read-out: Genotype 1a (pEC50 class, HCV genotype 1a replicon assay), * results (converted)

COC(=O)N[C@H](C(=O)N1CCC[C@H]1c1nc(-c2ccc(-c3cc(F)c(NC(=O)c4ccc(N5CCN(C(=O)[C@]6(C)CCCN6C(=O)NC(C)C)C[C@H]5C)nc4)cc3OC(F)(F)F)cc2)c[nH]1)C(C)C [Example 27-43]
EC50 [1]: < 100 pM | EC50 [2, 3]: < 100 pM

COCC(=O)N1CCC[C@@]1(C)C(=O)N1CCN(c2ccc(C(=O)Nc3cc(OC(F)(F)F)c(-c4ccc(-c5c[nH]c([C@@H]6CCCN6C(=O)[C@@H](NC(=O)OC)C(C)C)n5)cc4)cc3OC)cn2)[C@H](C)C1 [Example 27-31]
EC50 [1]: < 100 pM | EC50 [2, 3]: < 100 pM

COC(=O)N[C@H](C(=O)N1CCC[C@H]1c1nc(-c2ccc(-c3ccc(NC(=O)c4ccc(N5CCN(C(=O)C6CC6)C[C@H]5C)nc4)cc3C)cc2)c[nH]1)C(C)C [Example 17]
EC50 [1]: < 100 pM | EC50 [2, 3]: 100 to 1000 pM

COC(=O)N[C@H](C(=O)N1CCC[C@H]1c1nc(-c2ccc(-c3ccc(NC(=O)c4ccc(N5CCN(C(=O)[C@H]6CC6(C)C)C[C@H]5C)nc4)cc3OC(F)(F)F)cc2)c[nH]1)C(C)C [Example 25, [(S)-1-((S)-2-{5-[4′-({6-[(R)-4-((S)-2,2-Dimethyl-cyclopropanecarbonyl)-2-methyl-piperazin-1-yl]-pyridine-3-carbonyl}-amino)-2′-trifluoromethoxy-biphenyl-4-yl]-1H-imidazol-2-yl}-pyrrolidine-1-carbonyl)-2-methyl-propyl]-carbamic acid methyl ester]
EC50 [1]: < 100 pM | EC50 [2, 3]: < 100 pM

COC(=O)N[C@H](C(=O)N1CCC[C@H]1c1nc(-c2ccc(-c3ccc(NC(=O)c4ccc(N5CCN(C(=O)[C@H]6CC6(C)C)C[C@H]5C)nc4)cc3)cc2)c[nH]1)C(C)C [Example 14, [(S)-1-((S)-2-{4-[4′-({6-[(R)-4-((S)-2,2-Dimethyl-cyclopropane-carbonyl)-2-methyl-piperazin-1-yl]-pyridine-3-carbonyl}-amino)-biphenyl-4-yl]-1H-imidazol-2-yl}-pyrrolidine-1-carbonyl)-2-methyl-propyl]-carbamic acid methyl ester]
EC50 [1]: < 100 pM | EC50 [2, 3]: < 100 pM

CNC(=O)N1CCN(c2ccc(C(=O)Nc3ccc(-c4ccc(-c5c[nH]c([C@@H]6CCCN6C(=O)[C@@H](NC(=O)OC)C(C)C)n5)cc4)cc3)cn2)CC1 [Example 10, ((S)-2-Methyl-1-{(S)-2-[4-(4′-{[6-(4-methylcarbamoyl-piperazin-1-yl)-pyridine-3-carbonyl]-amino}-biphenyl-4-yl)-1H-imidazol-2-yl]-pyrrolidine-1-carbonyl}-propyl)-carbamic acid methyl ester]
EC50 [1]: < 100 pM | EC50 [2, 4]: 100 to 1000 pM

COC(=O)N[C@H](C(=O)N1CCC[C@H]1c1nc(-c2ccc(-c3ccc(NC(=O)c4ccc(N5CCN(C(=O)OC(C)(C)C)CC5)cc4)cc3)cc2)c[nH]1)C(C)C [Example 3, 4-[4-(4′-{2-[(S)-1-((S)-2-Methoxycarbonylamino-3-methyl-butyryl)-pyrrolidin-2-yl]-1H-imidazol-4-yl}-biphenyl-4-ylcarbamoyl)-phenyl]-piperazine-1-carboxylic acid tert-butyl ester]
EC50 [1]: < 100 pM | EC50 [2, 4]: 1000 to 10000 pM

COC(=O)N[C@H](C(=O)N1CCC[C@H]1c1nc(-c2ccc(-c3ccc(NC(=O)c4ccc(N5CCN(S(C)(=O)=O)CC5)cc4)cc3)cc2)c[nH]1)C(C)C [Example 4, {(S)-1-[(S)-2-(4-{4′-[4-(4-Methanesulfonyl-piperazin-1-yl)-benzoylamino]-biphenyl-4-yl}-1H-imidazol-2-yl)-pyrrolidine-1-carbonyl]-2-methyl-propyl}-carbamic acid methyl ester]
EC50 [1]: < 100 pM | EC50 [2, 4]: 10000 to 100000 pM

COCC(=O)N1CCC[C@@]1(C)C(=O)N1CCN(c2ccc(NC(=O)c3ccc(-c4ccc(-c5c[nH]c([C@@H]6CCCN6C(=O)[C@@H](NC(=O)OC)C(C)C)n5)cc4)c(OC(F)(F)F)c3)cn2)[C@H](C)C1 [Example 66]
EC50 [1]: < 100 pM | EC50 [2, 3]: < 100 pM

COC(=O)N[C@H](C(=O)N1CCC[C@H]1c1nc(-c2ccc(-c3cc(Cl)c(NC(=O)c4ccc(N5CCN(C(=O)[C@]6(C)CCCN6C(=O)CN(C)C)C[C@H]5C)nc4)cc3OC(F)(F)F)cc2)c[nH]1)C(C)C [Example 27-72]
EC50 [1]: < 100 pM | EC50 [2, 3]: < 100 pM

COC(=O)N[C@H](C(=O)N1CCC[C@H]1c1nc(-c2ccc(-c3ccc(NC(=O)c4ccc(N5CCN(C(=O)C6CC6)C[C@H]5C)nc4)cc3F)cc2)c[nH]1)C(C)C [Example 46]
EC50 [1]: < 100 pM | EC50 [2, 3]: 100 to 1000 pM

COC(=O)N[C@H](C(=O)N1CCC[C@H]1c1nc(-c2ccc(-c3ccc(NC(=O)c4ccc(N5CCN(C(=O)C(C)(C)C)CC5)cc4)cc3)cc2)c[nH]1)C(C)C [Example 2, ((S)-1-{(S)-2-[4-(4′-{4-[4-(2,2-Dimethyl-propionyl)-piperazin-1-yl]-benzoylamino}-biphenyl-4-yl)-1H-imidazol-2-yl]-pyrrolidine-1-carbonyl}-2-methyl-propyl)-carbamic acid methyl ester]
EC50 [1]: < 100 pM | EC50 [2, 4]: 1000 to 10000 pM

COC(=O)N[C@H](C(=O)N1CCC[C@H]1c1nc(-c2ccc(-c3ccc(C(=O)Nc4ccc(N5CCN(C(=O)[C@]6(C)CCCN6C(=O)CO)C[C@H]5C)nc4)cc3OC(F)(F)F)cc2)c[nH]1)C(C)C [Example 68]
EC50 [1]: < 100 pM | EC50 [2, 3]: 100 to 1000 pM

COC(=O)N[C@H](C(=O)N1CCC[C@H]1c1nc(-c2ccc(-c3ccc(NC(=O)c4ccc(N5C[C@H](C)N(C(=O)[C@H]6CC6(C)C)C[C@H]5C)nc4)c(C)n3)cc2)c[nH]1)C(C)C [Example 71, {(S)-1-[(S)-2-(4-{4-[5-({6-[(2R,5S)-4-((S)-2,2-Dimethyl-cyclopropanecarbonyl)-2,5-dimethyl-piperazin-1-yl]-pyridine-3-carbonyl}-amino)-6-methyl-pyridin-2-yl]-phenyl}-1H-imidazol-2-yl)-pyrrolidine-1-carbonyl]-2-methyl-propyl}-carbamic acid methyl ester]
EC50 [1]: < 100 pM | EC50 [2, 3]: 100 to 1000 pM

COC(=O)N[C@H](C(=O)N1CCC[C@H]1c1nc(-c2ccc(-c3cc(F)c(NC(=O)c4ccc(N5C[C@H](C)N(C(=O)[C@H]6CC6(C)C)C[C@H]5C)nc4)cc3OC(F)(F)F)cc2)c[nH]1)C(C)C [Example 57]
EC50 [1]: < 100 pM | EC50 [2, 3]: < 100 pM

CNC(=O)N1CCN(c2ccc(C(=O)Nc3ccc(-c4ccc(-c5c[nH]c([C@@H]6CCCN6C(=O)[C@@H](NC(=O)OC)C(C)C)n5)cc4)c(F)c3)cn2)[C@H](C)C1 [Example 47]
EC50 [1]: < 100 pM | EC50 [2, 3]: 100 to 1000 pM

CCOc1cc(NC(=O)c2ccc(N3CCN(C(=O)[C@]4(C)CCCN4C(=O)[C@@H](NC(=O)OC)C(C)C)C[C@H]3C)nc2)ccc1-c1ccc(-c2c[nH]c([C@@H]3CCCN3C(=O)[C@@H](NC(=O)OC)C(C)C)n2)cc1 [Example 21, [(S)-1-((S)-2-{4-[2′-Ethoxy-4′-({6-[(R)-4-((S)-1-{(S)-2-methoxycarbonylamino-3-methyl-butyryl}-2-methyl-pyrrolidine-2-carbonyl)-2-methyl-piperazin-1-yl]-pyridine-3-carbonyl}-amino)-biphenyl-4-yl]-1H-imidazol-2-yl}-pyrrolidine-1-carbonyl)-2-methyl-propyl]-carbamic acid methyl ester]
EC50 [1]: < 100 pM | EC50 [2, 3]: < 100 pM

COCC(=O)N1CCC[C@@]1(C)C(=O)N1CCN(c2ccc(C(=O)Nc3cc(OC(F)(F)F)c(-c4ccc(-c5c[nH]c([C@@H]6CCCN6C(=O)[C@@H](NC(=O)OC)C(C)C)n5)cc4)cc3F)cn2)[C@H](C)C1 [Example 27-46]
EC50 [1]: < 100 pM | EC50 [2, 3]: < 100 pM

COC(=O)N[C@H](C(=O)N1CCC[C@H]1c1nc(-c2ccc(-c3cc(F)c(NC(=O)c4ccc(N5CCN(C(=O)[C@]6(C)CCCN6C(=O)[C@@H](NC(=O)OC)C(C)C)C[C@H]5C)nc4)cc3C(F)(F)F)cc2)c[nH]1)C(C)C [Example 52]
EC50 [1]: < 100 pM | EC50 [2, 3]: < 100 pM

CNC(=O)N1CCN(c2ccc(C(=O)Nc3ccc(-c4ccc(-c5c[nH]c([C@@H]6CCCN6C(=O)[C@@H](NC(=O)OC)C(C)C)n5)cc4)c(OC(F)(F)F)c3)cn2)[C@H](C)C1 [Example 26]
EC50 [1]: < 100 pM | EC50 [2, 3]: < 100 pM

CNC(=O)N1CCC[C@@]1(C)C(=O)N1CCN(c2ccc(C(=O)Nc3cc(OC(F)(F)F)c(-c4ccc(-c5c[nH]c([C@@H]6CCCN6C(=O)[C@@H](NC(=O)OC)C(C)C)n5)cc4)cc3Cl)cn2)[C@H](C)C1 [Example 27-73]
EC50 [1]: < 100 pM | EC50 [2, 3]: < 100 pM

COCCNC(=O)N1CCC[C@@]1(C)C(=O)N1CCN(c2ccc(C(=O)Nc3cc(OC(F)(F)F)c(-c4ccc(-c5c[nH]c([C@@H]6CCCN6C(=O)[C@@H](NC(=O)OC)C(C)C)n5)cc4)cc3F)cn2)[C@H](C)C1 [Example 27-45]
EC50 [1]: < 100 pM | EC50 [2, 3]: < 100 pM

— patent publication US8921372B2, “Inhibitors of hepatitis C virus” (Theravance Biopharma R&D IP, LLC, priority 2010, dated 2014)
